Measured values: patent US11590202B2, “Inhibitors of LTβR-NFκB signaling pathways for treating inflammation and cancer” (University of Maryland, Baltimore, priority 2017, dated 2023)
No end group written: not given here.

How the values were obtained:
Format in all cases: cell-based, mouse
[1] = system: LTβR-mediated non-classical NFκB (NIK) signaling in LEC and SVEC4-10; assay: Immunoblot of non-classical NFκB (NIK) signaling after LTβR activation
Experimental: (§1) LECs were lysed in buffer containing 20 mM HEPES (pH 7.4), 150 mM NaCl, 10 mM NaF, 2 mM Na3VO4, 1 mM EDTA, 1 mM EGTA, 0.5% Triton X-100, 0.1 mM DTT, 1 mM PMSF and protease inhibitor cocktail (Roche, Indianapolis, Ind.). Protein in the cell extract was quantified using protein quantification kit (Bio-Rad, Philadelphia, Pa.) and 10 μg total protein was run on Novex™ WedgeWell™ 4-20% Tris-Glycine Mini Gels (Invitrogen) and transferred to an Immobilon-P membrane (Bio-Rad). Membranes were probed with anti-NF-κB2 p100/p52, NIK, phospho-IKKα/β(Ser176/180) (16A6), IκBα, TRAF2, TRAF3, and GAPDH antibodies. For co-IP assays, 500 μg total protein of cell extract was incubated with 1 μg of anti-mLTβR (5G11b) overnight, followed by 4 hour incubation with 25 μL protein G Agarose beads (Sigma-Aldrich). The beads were then washed with lysis buffer and boiled in 2× Laemmli sample buffer (Bio-Rad).

[2] = system: LTβR complex (TRAF2, TRAF3); assay: Co-immunoprecipitation of LTβR complex with anti-LTβR; settings: LEC pretreated, then anti-LTβR mAb for 10 minutes
Experimental: as §1

[3] = system: LTβR-induced chemokines and cell adhesion molecules in LEC and SVEC4-10; assay: LTβR-induced chemokine and adhesion molecule expression (qRT-PCR, ELISA, flow cytometry, immunohistochemistry); settings: LEC or SVEC4-10, anti-LTβR mAb (plus CL), peptides 20 μM; for LTβR-induced CCL2 expression/production: NIKi 50 μM, BAY11 25 μM
Experimental: LECs in PBS containing 0.2 mM calcium, 0.1 mM magnesium and 0.5% w/v BSA were treated with anti-CD16/32 (clone 93, eBioscience) to block Fc receptors, and then stained with antibodies to cell surface molecules in the same buffer. Flow cytometry antibodies used were: APC-eflour780-anti-mouse CD4 (GK1.5, eBioscience); PE-anti-mouse CD25 (PC61.5, eBioscience); APC-anti-mouse VCAM-1 (clone 647, eBioscience). For detection of LTα2β1, T cells were incubated with MOPC21 or LTβRIg at 2 μg/mL for 60 minutes at 37° C. in HBSS with 2% FBS. Cells were washed, and then stained for 45 minutes at 4° C. with BV421-rat anti-mouse IgG1 along with antibodies to other cell surface markers. Cells were then washed and fixed with 4% paraformaldehyde and run on an LSR Fortessa flow cytometer (BD Biosciences, San Jose, Calif.). Results were analyzed with software FlowJo 8.7 (Treestar).
(§2) One μg of total RNA extracted using Trizol reagent (Invitrogen) was reverse-transcribed into cDNA with GoScript™ Reverse Transcription System (Promega, Fitchburg, Wis.). mRNA expression levels were quantified by real-time PCR using SYBR Green Master Mix with an ABI Prism 7900HT (Applied Biosystems, Foster City, Calif.). Values for specific gene expression were normalized to house-keeping HPRT gene expression and were calculated as: 2^(Ct of HPRT-Ct specific gene). For the microarrays, total RNA of treated mLECs was extracted with RNeasy mini kit (Qiagen, Germantown, Md.) and analyzed for purity and integrity by capillary electrophoresis on an Agilent Bioanalyzer 2100 (Agilent Technologies, Inc. Santa Clara, Calif.). 100 ng/sample was subjected to amplification, followed by labeling and hybridization to Mouse Genome 430 2.0 GeneChips (Affymetrix, Santa Clara, Calif.). Sample amplification, labeling, hybridization, and detection were performed according to the manufacturer's protocols.
5×10^5 LECs or SVEC4-10 cells were plated in 12-well plates and treated with 20 μM peptides for 30 minutes at 37° C. Cells were then washed and incubated with anti-LTβR agonistic mAb (2 μg/mL) for 30 minutes at 4° C., followed by washing and then cross-linking with anti-rat IgG (2 μg/mL) for 6 or 16 hours at 37° C. The supernatants were collected and stored in −80° C. Mouse CCL2 and CCL21 were measured with ELISA kits from Biolegend, Inc. and R&D Systems (Minneapolis, Minn.), respectively.
(§3) LEC monolayers were stained for surface VCAM-1, LTβR or Lyve-1 with rat anti-mouse VCAM-1 (Clone 429, eBioscience), rat anti-mouse LTβR (Clone 3C8, eBioscience) or rabbit anti-mouse Lyve-1 (70R-LR003, Fitzgerald, Acton, Mass.), then were fixed for 20 minutes at 4° C. with 4% (w/v) paraformaldehyde (Affymetrix), permeabilized with PBS 0.2% (v/v) Triton X-100 (Sigma-Aldrich), and treated with 2% donkey serum for 10 minutes then incubated with rabbit anti-mouse CXCL12 (eBioscience), goat-anti-mouse CCL21 (Clone AF457, R&D System), or anti-NIK mouse monoclonal antibody (Clone A-12, Santa Cruz Biotechnology) overnight at 4° C. The primary antibodies were detected with Alexa Fluor […], 647 (Cy5), or 546 (Cy3)-conjugated donkey anti-goat, donkey anti-rabbit, or donkey anti-rat secondary antibodies (Jackson ImmunoResearch, West Grove, Pa.) for 1 hour at 4° C. Transwell membranes were transferred onto glass slides and visualized by fluorescent microscopy (Zeiss LSM 510 Meta, and LSMS Duo) with a ×60 or ×20 objective. Images were analyzed with Volocity version 6.3 software.

[4] = system: TNFR1-mediated VCAM-1 expression in LEC; assay: TNFα-stimulated VCAM-1 expression in LEC (qRT-PCR); settings: LEC stimulated with TNFα for 1 hour
Experimental: as §2

[5] = system: LTβR-NIK signaling in LEC and SVEC4-10; assay: Immunohistochemistry of LTβR, NIK and RelB in LEC and SVEC4-10; settings: anti-LTβR for 6 hours
Experimental: as §3

[6] = system: LEC; assay: MTT viability assay; settings: 20 μM peptides, without or with anti-LTβR mAb
Experimental: LECs were plated into 24-well tissue culture plates, incubated overnight, and treated with 20 μM peptides with or without agonist anti-LTβR (2 μg/mL) for 4 hours, followed by 3 hour incubation with 0.5 mg/mL MTT (3-(4, 5-Dimethylthiazol-2-yl)-2, 5 diphenyl tetrazolium bromide) (Sigma-Aldrich). 50 μL DMSO was added to cells before reading OD at 540 nm.

[7] = system: classical NFκB signaling in LEC; assay: Immunoblot of classical NFκB signaling (IKKα/β phosphorylation, IκBα degradation); settings: 2 μg/mL anti-LTβR mAb or 20 ng/mL TNFα
Experimental: as §1

[8] = pretreated with peptides or inhibitors, then anti-LTβR for 6 hours

Compound | TRAF2 degradation [1, 8] | TRAF2 recruitment to the LTβR complex [2] | TRAF3 recruitment to the LTβR complex [2] | LTβR-induced VCAM-1 expression [3] | LTβR-induced CCL2 expression/production [3] | NIK expression and co-localization with LTβR [5] | LEC viability (MTT) [6] | further results
CN[C@@H](C)C(=O)N[C@H]1CN(C(=O)CC(C)C)CC[C@H]2CC[C@@H](C(=O)NC(c3ccccc3)c3ccccc3)N2C1=O [AT406] | – | – | – | – | – | – | – | LTβR-mediated NIK accumulation and p100 processing ([1]; LEC and SVEC4-10, anti-LTβR mAb, 25 μM AT406): promoted more LTβR-mediated NIK accumulation and p100 processing
CC(C)(C)c1ccc(S(=O)(=O)/C=C/C#N)cc1 [BAY11-7085] | not BAY11-7085 also prevented | not BAY11-7085 was sufficient to inhibit | not BAY11-7085 was sufficient to inhibit | suppressed | suppressed | neither ciLT, BAY11-7085, nor NIKi affected | – | TNFR1-mediated VCAM-1 expression [4]: significantly inhibited
O=C1Cc2ccccc2C(=O)N1 [NIKi, 4H-isoquinoline-1,3-dione] | inhibited TRAF2 degradation | blocked | blocked | did not affect | partial inhibitory effect | neither ciLT, BAY11-7085, nor NIKi affected | – | p100 processing to p52 [1, 8]: prevented; LTβR-induced CCL21 transcription and production [3]: inhibited
RQIKIWFQNRRMKWKKPEEGAPGP [ciLT] | – | – | – | – | – | – | did not affect | –
RQIKIWFQNRRMKWKKTGNIYIYNGPVL [nciLT] | – | – | – | – | – | – | did not affect | –
TNFα | – | – | – | – | – | – | – | early classical NFκB activation (IKKα/β phosphorylation, IκBα degradation) [7]: induced strong IKKα/β phosphorylation and IκBα degradation
